Assays:
Assay in all cases: relative viability (nuclei count vs DMSO), 5 days (fraction); higher = more cells survive
Vandetanib + Crizotinib = compound: COc1cc2/c(=N/c3ccc(Br)cc3F)nc[nH]c2cc1OCC1CCN(C)CC1 [Vandetanib] + C[C@@H](Oc1cc(-c2cnn(C3CCNCC3)c2)cnc1N)c1c(Cl)ccc(F)c1Cl [Crizotinib] (partner 1 µM)
Summary of the method: (§1)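 Lung cancer cell lines, seeded in 1536-well plates, were treated the following day by pin tool with a single drug or with five library-drug doses (not always all listed) in √10 steps on top of a fixed anchor-drug dose. Cells were fixed and nuclei stained in one step after 5 days, and nuclei were counted. Relative viability is the nuclei count for treated wells divided by that for vehicle wells, reported as medians of duplicate plates.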

[1] = compound: C1=CC=C2C(=C1)N=C(S2)C(C#N)C3=NC(=NC=C3)NCCC4=CN=CC=C4 + CS(=O)(=O)N1CCN(Cc2cc3nc(-c4cccc5[nH]ncc45)nc(N4CCOCC4)c3s2)CC1 [Pictilisib] (partner 1 µM)
Summary of the method: as §1

Vandetanib + Dasatinib = compound: COc1cc2/c(=N/c3ccc(Br)cc3F)nc[nH]c2cc1OCC1CCN(C)CC1 [Vandetanib] + Cc1nc(Nc2ncc(C(=O)Nc3c(C)cccc3Cl)s2)cc(N2CCN(CCO)CC2)n1 [Dasatinib] (partner 0.075 µM)
Summary of the method: as §1

[2] = compound: C1=CC=C2C(=C1)N=C(S2)C(C#N)C3=NC(=NC=C3)NCCC4=CN=CC=C4 + C[C@@H](Oc1cc(-c2cnn(C3CCNCC3)c2)cnc1N)c1c(Cl)ccc(F)c1Cl [Crizotinib] (partner 1 µM)
Summary of the method: as §1

NCI-H2085
relative viability (Vandetanib + Crizotinib; first compound 0.02 µM): 0.807
relative viability (Vandetanib + Crizotinib; first compound 0.06325 µM): 0.841
relative viability (Vandetanib + Crizotinib; first compound 0.2 µM): 0.932
relative viability (Vandetanib + Crizotinib; first compound 0.6325 µM): 0.937
relative viability (Vandetanib + Crizotinib; first compound 2 µM): 0.875
relative viability ([1]; first compound 0.005 µM): 0.43
relative viability ([1]; first compound 0.01581 µM): 0.43
relative viability ([1]; first compound 0.05 µM): 0.39
relative viability ([1]; first compound 0.1581 µM): 0.483
relative viability ([1]; first compound 0.5 µM): 0.388
relative viability (Vandetanib + Dasatinib; first compound 0.02 µM): 0.226
relative viability (Vandetanib + Dasatinib; first compound 0.06325 µM): 0.236
relative viability (Vandetanib + Dasatinib; first compound 0.2 µM): 0.2
relative viability (Vandetanib + Dasatinib; first compound 0.6325 µM): 0.279
relative viability (Vandetanib + Dasatinib; first compound 2 µM): 0.244
relative viability ([2]; first compound 0.005 µM): 0.682
relative viability ([2]; first compound 0.01581 µM): 0.887
relative viability ([2]; first compound 0.05 µM): 0.792
relative viability ([2]; first compound 0.1581 µM): 0.825
relative viability ([2]; first compound 0.5 µM): 0.792

NCI-H358
relative viability (Vandetanib + Crizotinib; first compound 0.02 µM): 0.659
relative viability (Vandetanib + Crizotinib; first compound 0.06325 µM): 0.636
relative viability (Vandetanib + Crizotinib; first compound 0.2 µM): 0.137
relative viability (Vandetanib + Crizotinib; first compound 0.6325 µM): 0.397
relative viability (Vandetanib + Crizotinib; first compound 2 µM): 0.321
relative viability ([1]; first compound 0.005 µM): 0.347
relative viability ([1]; first compound 0.01581 µM): 0.295
relative viability ([1]; first compound 0.05 µM): 0.319
relative viability ([1]; first compound 0.1581 µM): 0.371
relative viability ([1]; first compound 0.5 µM): 0.342
relative viability (Vandetanib + Dasatinib; first compound 0.02 µM): 0.131
relative viability (Vandetanib + Dasatinib; first compound 0.06325 µM): 0.201
relative viability (Vandetanib + Dasatinib; first compound 0.2 µM): 0.161
relative viability (Vandetanib + Dasatinib; first compound 0.6325 µM): 0.136
relative viability (Vandetanib + Dasatinib; first compound 2 µM): 0.124
relative viability ([2]; first compound 0.005 µM): 0.678
relative viability ([2]; first compound 0.01581 µM): 0.539
relative viability ([2]; first compound 0.05 µM): 0.533
relative viability ([2]; first compound 0.1581 µM): 0.621
relative viability ([2]; first compound 0.5 µM): 0.609

NCI-H2023
relative viability (Vandetanib + Crizotinib; first compound 0.02 µM): 0.661
relative viability (Vandetanib + Crizotinib; first compound 0.06325 µM): 0.556
relative viability (Vandetanib + Crizotinib; first compound 0.2 µM): 0.624
relative viability (Vandetanib + Crizotinib; first compound 0.6325 µM): 0.49
relative viability (Vandetanib + Crizotinib; first compound 2 µM): 0.499
relative viability ([1]; first compound 0.005 µM): 0.283
relative viability ([1]; first compound 0.01581 µM): 0.205
relative viability ([1]; first compound 0.05 µM): 0.209
relative viability ([1]; first compound 0.1581 µM): 0.265
relative viability ([1]; first compound 0.5 µM): 0.239
relative viability (Vandetanib + Dasatinib; first compound 0.02 µM): 0.584
relative viability (Vandetanib + Dasatinib; first compound 0.06325 µM): 0.563
relative viability (Vandetanib + Dasatinib; first compound 0.2 µM): 0.514
relative viability (Vandetanib + Dasatinib; first compound 0.6325 µM): 0.542
relative viability (Vandetanib + Dasatinib; first compound 2 µM): 0.59
relative viability ([2]; first compound 0.005 µM): 0.592
relative viability ([2]; first compound 0.01581 µM): 0.568
relative viability ([2]; first compound 0.05 µM): 0.604
relative viability ([2]; first compound 0.1581 µM): 0.706
relative viability ([2]; first compound 0.5 µM): 0.483

SW 1573
relative viability (Vandetanib + Crizotinib; first compound 0.02 µM): 0.896
relative viability (Vandetanib + Crizotinib; first compound 0.06325 µM): 0.704
relative viability (Vandetanib + Crizotinib; first compound 0.2 µM): 0.7
relative viability (Vandetanib + Crizotinib; first compound 0.6325 µM): 0.815
relative viability (Vandetanib + Crizotinib; first compound 2 µM): 0.849
relative viability ([1]; first compound 0.005 µM): 0.373
relative viability ([1]; first compound 0.01581 µM): 0.542
relative viability ([1]; first compound 0.05 µM): 0.505
relative viability ([1]; first compound 0.1581 µM): 0.497
relative viability ([1]; first compound 0.5 µM): 0.497
relative viability (Vandetanib + Dasatinib; first compound 0.02 µM): 0.449
relative viability (Vandetanib + Dasatinib; first compound 0.06325 µM): 0.577
relative viability (Vandetanib + Dasatinib; first compound 0.2 µM): 0.598
relative viability (Vandetanib + Dasatinib; first compound 0.6325 µM): 0.441
relative viability (Vandetanib + Dasatinib; first compound 2 µM): 0.674
relative viability ([2]; first compound 0.005 µM): 0.753
relative viability ([2]; first compound 0.01581 µM): 0.809
relative viability ([2]; first compound 0.05 µM): 0.722
relative viability ([2]; first compound 0.1581 µM): 0.793
relative viability ([2]; first compound 0.5 µM): 0.785

NCI-H3122
relative viability (Vandetanib + Crizotinib; first compound 0.02 µM): 0.291
relative viability (Vandetanib + Crizotinib; first compound 0.06325 µM): 0.257
relative viability (Vandetanib + Crizotinib; first compound 0.2 µM): 0.266
relative viability (Vandetanib + Crizotinib; first compound 0.6325 µM): 0.261
relative viability (Vandetanib + Crizotinib; first compound 2 µM): 0.249
relative viability ([1]; first compound 0.005 µM): 0.62
relative viability ([1]; first compound 0.01581 µM): 0.655
relative viability ([1]; first compound 0.05 µM): 0.603
relative viability ([1]; first compound 0.1581 µM): 0.613
relative viability ([1]; first compound 0.5 µM): 0.64
relative viability (Vandetanib + Dasatinib; first compound 0.02 µM): 0.683
relative viability (Vandetanib + Dasatinib; first compound 0.06325 µM): 0.673
relative viability (Vandetanib + Dasatinib; first compound 0.2 µM): 0.122
relative viability (Vandetanib + Dasatinib; first compound 0.6325 µM): 0.76
relative viability (Vandetanib + Dasatinib; first compound 2 µM): 0.797
relative viability ([2]; first compound 0.005 µM): 0.245
relative viability ([2]; first compound 0.01581 µM): 0.305
relative viability ([2]; first compound 0.05 µM): 0.279
relative viability ([2]; first compound 0.1581 µM): 0.296
relative viability ([2]; first compound 0.5 µM): 0.296

NCI-H661
relative viability (Vandetanib + Crizotinib; first compound 0.02 µM): 0.969
relative viability (Vandetanib + Crizotinib; first compound 0.2 µM): 0.99
relative viability (Vandetanib + Crizotinib; first compound 0.6325 µM): 1.06
relative viability (Vandetanib + Crizotinib; first compound 2 µM): 1.03
relative viability ([1]; first compound 0.005 µM): 0.382
relative viability ([1]; first compound 0.01581 µM): 0.358
relative viability ([1]; first compound 0.05 µM): 0.44
relative viability ([1]; first compound 0.1581 µM): 0.403
relative viability ([1]; first compound 0.5 µM): 0.211
relative viability (Vandetanib + Dasatinib; first compound 0.02 µM): 0.988
relative viability (Vandetanib + Dasatinib; first compound 0.06325 µM): 0.856
relative viability (Vandetanib + Dasatinib; first compound 0.2 µM): 0.837
relative viability (Vandetanib + Dasatinib; first compound 0.6325 µM): 0.803
relative viability (Vandetanib + Dasatinib; first compound 2 µM): 0.874
relative viability ([2]; first compound 0.005 µM): 1.24
relative viability ([2]; first compound 0.01581 µM): 1.26
relative viability ([2]; first compound 0.05 µM): 0.99
relative viability ([2]; first compound 0.1581 µM): 1.06
relative viability ([2]; first compound 0.5 µM): 0.98

NCI-H441
relative viability (Vandetanib + Crizotinib; first compound 0.02 µM): 0.926
relative viability (Vandetanib + Crizotinib; first compound 0.06325 µM): 0.751
relative viability (Vandetanib + Crizotinib; first compound 0.2 µM): 0.687
relative viability (Vandetanib + Crizotinib; first compound 0.6325 µM): 0.88
relative viability (Vandetanib + Crizotinib; first compound 2 µM): 0.856
relative viability ([1]; first compound 0.01581 µM): 0.458
relative viability ([1]; first compound 0.05 µM): 0.549
relative viability ([1]; first compound 0.1581 µM): 0.55
relative viability ([1]; first compound 0.5 µM): 0.494
relative viability (Vandetanib + Dasatinib; first compound 0.02 µM): 0.552
relative viability (Vandetanib + Dasatinib; first compound 0.06325 µM): 0.54
relative viability (Vandetanib + Dasatinib; first compound 0.2 µM): 0.617
relative viability (Vandetanib + Dasatinib; first compound 0.6325 µM): 0.598
relative viability (Vandetanib + Dasatinib; first compound 2 µM): 0.629
relative viability ([2]; first compound 0.01581 µM): 0.486
relative viability ([2]; first compound 0.05 µM): 0.691
relative viability ([2]; first compound 0.1581 µM): 0.834
relative viability ([2]; first compound 0.5 µM): 0.554

NCI-H596
relative viability (Vandetanib + Crizotinib; first compound 0.02 µM): 0.907
relative viability (Vandetanib + Crizotinib; first compound 0.06325 µM): 0.872
relative viability (Vandetanib + Crizotinib; first compound 0.2 µM): 1.2
relative viability (Vandetanib + Crizotinib; first compound 0.6325 µM): 1.12
relative viability (Vandetanib + Crizotinib; first compound 2 µM): 0.81
relative viability ([1]; first compound 0.005 µM): 0.378
relative viability ([1]; first compound 0.01581 µM): 0.349
relative viability ([1]; first compound 0.05 µM): 0.383
relative viability ([1]; first compound 0.1581 µM): 0.46
relative viability ([1]; first compound 0.5 µM): 0.392
relative viability (Vandetanib + Dasatinib; first compound 0.02 µM): 0.498
relative viability (Vandetanib + Dasatinib; first compound 0.06325 µM): 0.659
relative viability (Vandetanib + Dasatinib; first compound 0.2 µM): 0.646
relative viability (Vandetanib + Dasatinib; first compound 0.6325 µM): 0.585
relative viability (Vandetanib + Dasatinib; first compound 2 µM): 0.596
relative viability ([2]; first compound 0.005 µM): 0.864
relative viability ([2]; first compound 0.01581 µM): 1.03
relative viability ([2]; first compound 0.05 µM): 0.939
relative viability ([2]; first compound 0.1581 µM): 1.16
relative viability ([2]; first compound 0.5 µM): 0.952
